# Assay results as given in patent publication US20160297833A1, “THIENOPYRIMIDINES AS MKNK1 AND MKNK2 INHIBITORS” (BAYER PHARMA AKTIENGESELLSCHAFT, priority 2013, published 2016).
# Target: T1, human full-length MKNK1 (Homo sapiens, UniProt Q9BUB5, T385D)
# T1 construct: GST (N); purchased Carna Biosciences 02-145; host or cells: insect cells (baculovirus expression system)
# Experiment: MKNK1 kinase high ATP assay (TR-FRET)
# Type: biochemical
# Details: Table 1; MKNK1 kinase high ATP assay, 2 mM ATP; read-out: MKNK1 IC50
# Summary of the method: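 Full-length human MKNK1 (T385D) preincubated 15 min at 22 °C with compound in HEPES pH 7.5/MgCl2/DTT buffer; reaction with 2 mM ATP (final) and 0.06 μM biotinylated peptide (final), 30 min at 22 °C.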
# T1 sequence (Q9BUB5 1-424 isoform Q9BUB5-2 T344D): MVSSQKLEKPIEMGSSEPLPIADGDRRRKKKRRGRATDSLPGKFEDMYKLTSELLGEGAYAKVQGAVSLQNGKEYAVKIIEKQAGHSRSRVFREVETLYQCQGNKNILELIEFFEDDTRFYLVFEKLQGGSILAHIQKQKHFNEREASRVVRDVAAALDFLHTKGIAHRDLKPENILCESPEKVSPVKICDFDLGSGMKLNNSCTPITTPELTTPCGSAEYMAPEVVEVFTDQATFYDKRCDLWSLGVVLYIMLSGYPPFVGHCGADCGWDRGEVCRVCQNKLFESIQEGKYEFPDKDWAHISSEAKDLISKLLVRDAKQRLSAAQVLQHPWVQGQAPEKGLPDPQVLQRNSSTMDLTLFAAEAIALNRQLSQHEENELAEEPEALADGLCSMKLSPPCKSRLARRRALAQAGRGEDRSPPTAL
row,IC50 [nM],Compound
1,2.4,"CN(C)C(=O)[C@H]1CCc2c(sc3ncnc(Nc4cc5cn[nH]c5cc4OCCNC(=O)C(C)(C)C)c23)C1 [Example 257, (7S)-4-[(6-{2-[(2,2-Dimethylpropanoyl)amino]ethoxy}-1H-indazol-5-yl)amino]-N, N-dimethyl-5,6,7,8-tetrahydro[1]benzothieno[2,3-d]pyrimidine-7-carboxamide]"
2,25.6,"O=C([C@H]1CCc2c(sc3ncnc(Nc4ccc5[nH]ncc5c4)c23)C1)N1CCOCC1 [Example 9, [(7S)-4-(1H-Indazol-5-ylamino)-5,6,7,8-tetrahydro[1]benzothieno[2,3-d]pyrimidin-7-yl](morpholin-4-yl)methanone]"
3,84.2,"CC(C)(C)COc1cc2[nH]ncc2cc1Nc1ncnc2sc3c(c12)CC[C@H](C(=O)N1CCOCC1)C3 [Example 279, [(7S)-4-{[6-(2,2-Dimethylpropoxy)-1H-indazol-5-yl]amino}-5,6,7,8-tetrahydro[1]benzothieno[2,3-d]pyrimidin-7-yl](morpholin-4-yl)methanone]"
4,0.9,"C[C@@H]1CN(C(=O)[C@H]2CCc3c(sc4ncnc(Nc5cc6cn[nH]c6cc5OC5CN(C(=O)OC(C)(C)C)C5)c34)C2)C[C@H](C)O1 [Example 266, tert-Butyl 3-[(5-{[(7S)-7-{[(2R,6S)-2,6-dimethylmorpholin-4-yl]carbonyl}-5,6,7,8-tetrahydro[1]benzothieno[2,3-d]pyrimidin-4-yl]amino}-1H-indazol-6-yl)oxy]azetidine-1-carboxylate]"
5,0.3,"CC(C)N(C)c1cc2[nH]ncc2cc1Nc1ncnc2sc3c(c12)CC[C@H](C(=O)N(C)C)C3 [Example 99, (7S)—N,N-Dimethyl-4-({6-[methyl(propan-2-yl)amino]-1H-indazol-5-yl}amino)-5,6,7,8-tetrahydro[1]benzothieno[2,3-d]pyrimidine-7-carboxamide]"
6,8.3,"CN(C)CCOc1cc2[nH]ncc2cc1Nc1ncnc2sc3c(c12)CC[C@H](C(=O)N1CCC(N(C)C)CC1)C3 [Example 134, [(7S)-4-({6-[2-(Dimethylamino)ethoxy]-1H-indazol-5-yl}amino)-5,6,7,8-tetrahydro[1]benzothieno[2,3-d]pyrimidin-7-yl][4-(dimethylamino)piperidin-1-yl]methanone]"
7,0.4,"COc1cc2[nH]ncc2cc1Nc1ncnc2sc3c(c12)CC[C@H](C(=O)N1CCCO1)C3 [Example 213, {(7S)-4-[(6-Methoxy-1H-indazol-5-yl)amino]-5,6,7,8-tetrahydro[1]benzothieno[2,3-d]pyrimidin-7-yl}(1,2-oxazolidin-2-yl)methanone]"
8,5.6,"C[C@@H](N)COc1cc2[nH]ncc2cc1Nc1ncnc2sc3c(c12)CC[C@H](C(=O)N(C)C)C3 [Example 147, (7S)-4-[(6-{[(2R)-2-Aminopropyl]oxy}-1H-indazol-5-yl)amino]-N,N-dimethyl-5,6,7,8-tetrahydro[1]benzothieno[2,3-d]pyrimidine-7-carboxamide]"
9,0.6,"C[C@H]1COCCN1C(=O)[C@H]1CCc2c(sc3ncnc(Nc4cc5cn[nH]c5cc4N4CCCC4)c23)C1 [Example 185, [(3S)-3-Methylmorpholin-4-yl][(7S)-4-{[6-(pyrrolidin-1-yl)-1H-indazol-5-yl]amino}-5,6,7,8-tetrahydro[1]benzothieno[2,3-d]pyrimidin-7-yl]methanone]"
10,0.9,"COc1cc2[nH]ncc2cc1Nc1ncnc2sc3c(c12)CC[C@H](C(=O)N1CC=CC1)C3 [Example 206, 2,5-Dihydro-1H-pyrrol-1-yl{(7S)-4-[(6-methoxy-1H-indazol-5-yl)amino]-5,6,7,8-tetrahydro[1]benzothieno[2,3-d]pyrimidin-7-yl}methanone]"
11,0.1,"COc1cc2[nH]ncc2cc1Nc1ncnc2sc3c(c12)CC[C@H](C(=O)N(C)CCN(C)C)C3 [Example 51, (7S)—N-[2-(Dimethylamino)ethyl]-4-[(6-methoxy-1H-indazol-5-yl)amino]-N-methyl-5,6,7,8-tetrahydro[1]benzothieno[2,3-d]pyrimidine-7-carboxamide]"
12,0.5,"CC(C)CC(=O)NCCOc1cc2[nH]ncc2cc1Nc1ncnc2sc3c(c12)CC[C@H](C(=O)N(C)C)C3 [Example 271, (7S)—N,N-Dimethyl-4-[(6-{2-[(3-methylbutanoyl)amino]ethoxy}-1H-indazol-5-yl)amino]-5,6,7,8-tetrahydro[1]benzothieno[2,3-d]pyrimidine-7-carboxamide]"
13,0.4,"C[C@H]1COCCN1C(=O)[C@H]1CCc2c(sc3ncnc(Nc4cc5cn[nH]c5cc4OCCN)c23)C1 [Example 131, [(7S)-4-{[6-(2-Aminoethoxy)-1H-indazol-5-yl]amino}-5,6,7,8-tetrahydro[1]benzothieno[2,3-d]pyrimidin-7-yl][(3S)-3-methylmorpholin-4-yl]methanone]"
14,0.6,"CN(CCC(F)(F)F)C(=O)[C@H]1CCc2c(sc3ncnc(Nc4cc5cn[nH]c5cc4N4CCCC4)c23)C1 [Example 245, (7S)—N-Methyl-4-{[6-(pyrrolidin-1-yl)-1H-indazol-5-yl]amino}-N-(3,3,3-trifluoropropyl)-5,6,7,8-tetrahydro[1]benzothieno[2,3-d]pyrimidine-7-carboxamide]"
15,0.3,"CC(C)Oc1cc2[nH]ncc2cc1Nc1ncnc2sc3c(c12)CC[C@H](C(=O)N(C)CC(C)(C)O)C3 [Example 126, (7S)—N-(2-Hydroxy-2-methylpropyl)-N-methyl-4-{[6-(propan-2-yloxy)-1H-indazol-5-yl]amino}-5,6,7,8-tetrahydro[1]benzothieno[2,3-d]pyrimidine-7-carboxamide]"
16,0.1,"CC(C)Oc1cc2[nH]ncc2cc1Nc1ncnc2sc3c(c12)CC[C@H](C(=O)N1CC[C@@H](N(C)C)C1)C3 [Example 169, [(3R)-3-(Dimethylamino)pyrrolidin-1-yl][(7S)-4-{[6-(propan-2-yloxy)-1H-indazol-5-yl]amino}-5,6,7,8-tetrahydro[1]benzothieno[2,3-d]pyrimidin-7-yl]methanone]"
17,92.3,"C[C@H]1COCCN1C(=O)[C@H]1CCc2c(sc3ncnc(Nc4cc5cn[nH]c5cc4OCCN4CCCC4)c23)C1 [Example 118, [(3S)-3-Methylmorpholin-4-yl][(7S)-4-({6-[2-(pyrrolidin-1-yl)ethoxy]-1H-indazol-5-yl}amino)-5,6,7,8-tetrahydro[1]benzothieno[2,3-d]pyrimidin-7-yl]methanone]"
18,0.1,"COc1cc2[nH]ncc2cc1Nc1ncnc2sc3c(c12)CC[C@H](C(=O)N(CCN(C)C)Cc1cccnc1)C3 [Example 61, (7S)—N-[2-(Dimethylamino)ethyl]-4-[(6-methoxy-1H-indazol-5-yl)amino]-N-(pyridin-3-ylmethyl)-5,6,7,8-tetrahydro[1]benzothieno[2,3-d]pyrimidine-7-carboxamide]"
19,0.9,"CN(C)C(=O)[C@H]1CCc2c(sc3ncnc(Nc4cc5cn[nH]c5cc4OC4CN(C(=O)OC(C)(C)C)C4)c23)C1 [Example 265, tert-Butyl 3-[(5-{[(7S)-7-(dimethylcarbamoyl)-5,6,7,8-tetrahydro[1]benzothieno[2,3-d]pyrimidin-4-yl]amino}-1H-indazol-6-yl)oxy]azetidine-1-carboxylate]"
20,3,"C[C@H](N)COc1cc2[nH]ncc2cc1Nc1ncnc2sc3c(c12)CC[C@H](C(=O)N1CCOC[C@@H]1C)C3 [Example 143, {(7S)-4-[(6-{[(2S)-2-Aminopropyl]oxy}-1H-indazol-5-yl)amino]-5,6,7,8-tetrahydro[1]benzothieno[2,3-d]pyrimidin-7-yl}[(3S)-3-methylmorpholin-4-yl]methanone]"
21,88.5,"CN1CCN(C(=O)[C@@H]2CCc3c(sc4ncnc(Nc5ccc6[nH]ncc6c5)c34)C2)CC1 [Example 15, [(7R)-4-(1H-Indazol-5-ylamino)-5,6,7,8-tetrahydro[1]benzothieno[2,3-d]pyrimidin-7-yl](4-methylpiperazin-1-yl)methanone]"
22,0.1,"CN(C)c1cc2[nH]ncc2cc1Nc1ncnc2sc3c(c12)CC[C@H](C(=O)N1CCC1)C3 [Example 196, Azetidin-1-yl[(7S)-4-{[6-(dimethylamino)-1H-indazol-5-yl]amino}-5,6,7,8-tetrahydro[1]benzothieno[2,3-d]pyrimidin-7-yl]methanone]"
23,8.9,"CC(C)Oc1cc2[nH]ncc2c(F)c1Nc1ncnc2sc3c(c12)CC[C@H](C(=O)N(C)C)C3 [Example 129, (7S)-4-{[4-Fluoro-6-(propan-2-yloxy)-1H-indazol-5-yl]amino}-N,N-dimethyl-5,6,7,8-tetrahydro[1]benzothieno[2,3-d]pyrimidine-7-carboxamide]"
24,5.1,"C[C@@H](CN)Oc1cc2[nH]ncc2cc1Nc1ncnc2sc3c(c12)CC[C@H](C(=O)N1CCOC[C@@H]1C)C3 [Example 145, {(7S)-4-[(6-{[(2S)-1-Aminopropan-2-yl]oxy}-1H-indazol-5-yl)amino]-5,6,7,8-tetrahydro[1]benzothieno[2,3-d]pyrimidin-7-yl}[(3S)-3-methylmorpholin-4-yl]methanone]"
25,0.4,"C[C@@H]1COCCN1C(=O)[C@H]1CCc2c(sc3ncnc(Nc4cc5cn[nH]c5cc4N4CCCC4)c23)C1 [Example 184, [(3R)-3-Methylmorpholin-4-yl][(7S)-4-{[6-(pyrrolidin-1-yl)-1H-indazol-5-yl]amino}-5,6,7,8-tetrahydro[1]benzothieno[2,3-d]pyrimidin-7-yl]methanone]"

# Same assay, conditions: Table 3; example numbers of WO2013/174744(A1), not of this patent; pure enantiomer from chiral HPLC, absolute configuration at amide 'R or S'; read-out: MKNK1 IC50
row,Compound,IC50 [nM]
1,"(7S)-4-(1H-Indazol-5-ylamino)-N-methyl-N-(3,3,3-trifluoropropyl)-5,6,7,8-tetrahydro[1]benzothieno[2,3-d]pyrimidine-7-carboxamide [Example 6]",15.6

# Same assay, conditions: Table 3; example numbers of WO2013/174744(A1), not of this patent; pure enantiomer from chiral HPLC, absolute configuration at amide 'S or R'; read-out: MKNK1 IC50
row,Compound,IC50 [nM]
1,"(7S)-4-(1H-Indazol-5-ylamino)-N-methyl-N-(3,3,3-trifluoropropyl)-5,6,7,8-tetrahydro[1]benzothieno[2,3-d]pyrimidine-7-carboxamide [Example 6]",7.5

# Same assay, conditions: Table 3; example numbers of WO2013/174744(A1); ratio of the IC50 values of the two enantiomers
row,Compound,Activity Ratio MKNK1
1,"(7S)-4-(1H-Indazol-5-ylamino)-N-methyl-N-(3,3,3-trifluoropropyl)-5,6,7,8-tetrahydro[1]benzothieno[2,3-d]pyrimidine-7-carboxamide [Example 6]",2.1
